# Assays:
# CCR2 = target: T1, CCR2 (Homo sapiens, UniProt P41597); assay: CCR2 in vitro test: intracellular calcium signal detected by FLIPR; type: cell-based; conditions: HEK293 cells expressing CCR2, agonist MCP-1 at EC80, calcium signal
# T1 construct: expressed in transfected cells; host or cells: HEK293, clone C7, passage P6
# Experimental: (§1) Experimental Example 1: CCR2/CCR5 In Vitro Test
# (§2) The intracellular calcium signal was detected by FLIPR, and the IC50 value of the compound was used as an index to evaluate the inhibitory effect of the compound on CCR2 and CCR5 receptors.
# (§3) 1. Cell line: The cells were inoculated and incubated in a 5% CO2 incubator at 37° C. overnight.
# (§4) CCR2/CCR5 density: 1 M (20 k/well)
# (§5) 2. Reagents: Fluo-4 Direct, (Invitrogen, Cat #F10471)
# (§6) The compound was dissolved in DMSO to prepare a 10 mM solution, and the compound solution was placed in a nitrogen box.
# (§7) Agonist reference compounds:
# (§8) Preparation of probenecid in FLIPR assay buffer: 1 mL of FLIPR assay buffer was added to […] of probenecid to prepare a 250 mM solution, which is prepared fresh daily.
# (§9) 2× (8 μM) Fluo-4 Direct™ Loading Buffer (per 10 mL) • Thaw a bottle of Fluo-4 Direct™ crystal (F10471). • Add 10 mL of FLIPR assay buffer to the vial. • Add 0.2 mL of probenecid to each 10 mL of Fluo-Direct. The final concentration of the assay was 2.5 mM. • Rotate it and place for >5 minutes (in absence of light). • Prepare fresh daily.
# (§10) MCP-1 was diluted in FLIPR assay buffer 1:2 into 10 points, starting at 0.5 uM (final 100 nM). RANTES was diluted in FLIPR assay buffer 1:3 into 10 points, starting at 0.5 uM (final 100 nM). 20 uL of serially diluted compound buffer was added to each well of the DRC plate according to the compound plate map.
# (§11) Standard compound was diluted in DMSO 1:3 into 11 points, starting at 1 mM. Test compound was diluted in DMSO 1:3 into 11 points, starting at 2 mM. 250 nL of compound solution was transferred into a cell plate using Echo (Greiner #781946).
# (§12) (c) Take the cell plate out of the incubator, and gently dispense 20 uL of 2× Fluo-4 Direct wash-free loading buffer into a 384-well cell culture plate using a pipette. The final cell plate is 40 μL in volume.
# (§13) (d) Incubate for 50 minutes at 37° C. under 5% CO2, and for 10 minutes at room temperature.
# (§14) (e) Take the cell plate out of the incubator, and place it in FLIPR. Place the composite plate and the tip box in FLIPR.
# (§15) (f) For DRC plate: • 1) Run the program on FLIPRTETRA. • 2) Read the fluorescent signal. • 3) Transfer 10 μL of compound from the DRC plate to the cell plate. • 4) Read the fluorescent signal. • 5) Calculate the “maximum−minimum” from Read 90 to the maximum allowed. Use FLIPR to calculate the EC80 value of each cell line. • 6) Prepare 5×EC80 concentration of the agonist reference compound.
# (§16) (g) For the composite plate (1-add): • 1) Run the program on FLIPRTETRA. • 2) Transfer 10 μl, of 5×EC80 concentration of the agonist reference compound from the composite plate to the cell plate. • 3) Read the fluorescent signal. • 4) Calculate the “maximum−minimum” from Read 90 to the maximum allowed.
# (§17) (h) Analyze the data using Prism, and calculate the IC50 value of the compound.
# CCR5 = target: T2, CCR5 (Homo sapiens, UniProt P51681); assay: CCR5 in vitro test: intracellular calcium signal detected by FLIPR; type: cell-based; conditions: HEK293 cells expressing CCR5, agonist RANTES at EC80, calcium signal
# T2 construct: expressed in transfected cells; host or cells: HEK293, clone C13, passage P4
# T2 sequence (P51681 whole entry, species assumed): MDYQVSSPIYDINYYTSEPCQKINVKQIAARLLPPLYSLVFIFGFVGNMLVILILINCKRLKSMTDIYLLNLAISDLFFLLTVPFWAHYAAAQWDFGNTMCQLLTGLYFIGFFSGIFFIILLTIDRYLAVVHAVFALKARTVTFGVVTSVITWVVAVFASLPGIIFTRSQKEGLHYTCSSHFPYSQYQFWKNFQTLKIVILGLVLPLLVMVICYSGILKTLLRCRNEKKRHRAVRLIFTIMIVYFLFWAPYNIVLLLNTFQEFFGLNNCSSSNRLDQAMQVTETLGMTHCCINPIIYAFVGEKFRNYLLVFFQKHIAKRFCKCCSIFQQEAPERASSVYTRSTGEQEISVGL
# Experimental: as §1, §2, §3, §4, §5, §6, §7, §8, §9, §10, §11, §12, §13, §14, §15, §16, §17
# T1 sequence (P41597 whole entry, species assumed): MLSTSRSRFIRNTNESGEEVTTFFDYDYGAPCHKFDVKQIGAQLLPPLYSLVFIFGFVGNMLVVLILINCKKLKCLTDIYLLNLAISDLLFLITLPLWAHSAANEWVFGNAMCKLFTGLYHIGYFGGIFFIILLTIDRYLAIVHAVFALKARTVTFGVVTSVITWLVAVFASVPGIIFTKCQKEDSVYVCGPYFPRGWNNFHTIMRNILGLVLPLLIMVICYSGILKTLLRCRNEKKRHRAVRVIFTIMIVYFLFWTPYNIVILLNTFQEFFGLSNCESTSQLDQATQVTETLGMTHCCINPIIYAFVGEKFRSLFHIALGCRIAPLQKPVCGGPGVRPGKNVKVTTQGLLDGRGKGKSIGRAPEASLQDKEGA
Structure (SMILES),IC50 (CCR2),IC50 (CCR5)
CCCCOc1ccc(-c2ccc(Cl)c(/C=C/C(=O)Nc3ccc([S+]([O-])Cc4cncn4CCCC)cc3)c2)cc1 (stereo not shown) [WX027],207 nM,13.6 nM
CCCn1cncc1C[S@+]([O-])c1ccc(NC(=O)/C=C/c2cccc(-c3ccc(OCCOC)cc3)c2)cc1 [WX013],984 nM,14.2 nM
CCCCOCCOc1ccc(-c2ccc(OC)c(/C=C/C(=O)Nc3ccc([S@@+]([O-])Cc4cncn4CC)cc3)c2)cc1 [WX040],11.3 nM,10.5 nM
CCCCOc1ccc(-c2ccc(OCCCF)c(/C=C/C(=O)Nc3ccc([S@@+]([O-])Cc4cncn4CCC)cc3)c2)cc1 [WX024],63.1 nM,1.3 nM
CCCCOCCOc1ccc(-c2ccc(OCC(C)C)c(/C=C/C(=O)Nc3ccc([S@@+]([O-])Cc4cncn4CCC)cc3)c2)cc1 [WX034],30 nM,10 nM
CCCCOCCOc1ccc(-c2ccc(C3CCCC3)c(/C=C/C(=O)Nc3ccc([S@+]([O-])Cc4c(C)ncn4CC)cc3)c2)cc1 [WX073],11.9 nM,6.5 nM
CCCCOc1ccc(-c2ccc(Cl)c(/C=C/C(=O)Nc3ccc([S@@+]([O-])Cc4cncn4CCC)cc3)c2)cc1 [WX025],127 nM,7.4 nM
CCCCOCCOc1ccc(-c2cc(Cl)c(OC)c(/C=C/C(=O)Nc3ccc([S@@+]([O-])Cc4cncn4CCC)cc3)c2)cc1 [WX053],5.9 nM,1.3 nM
CCCCOCCOc1ccc(-c2cccc(/C=C/C(=O)Nc3ccc([S@@+]([O-])Cc4nncn4CCC)cc3)c2)cc1 [WX010],214 nM,17.2 nM
CCCCOCCOc1ccc(-c2cccc(/C=C/C(=O)Nc3ccc([S+]([O-])Cc4cncn4CCCC)cc3)c2)cc1 (stereo not shown) [WX028],86.4 nM,15.5 nM
CCCCOCCOc1ccc(-c2ccc(OC)c(/C=C/C(=O)Nc3ccc([S@+]([O-])Cc4c(C)ncn4CCC)cc3)c2)cc1 [WX075],17.3 nM,2.4 nM
CCCCOCCOc1ccc(-c2ccc(F)c(/C=C/C(=O)Nc3ccc([S@+]([O-])Cc4c(C)ncn4CC)cc3)c2)cc1 [WX091],4.7 nM,4.4 nM
CCCCOCCOc1ccc(-c2ccc(OC)c(/C=C/C(=O)Nc3ccc([S+]([O-])Cc4cnccc4CC)cc3)c2)cc1 (stereo not shown) [WX086],13 nM,1.8 nM
CCCCOCCOc1ccc(-c2ccc(OC(F)F)c(/C=C/C(=O)Nc3ccc([S@+]([O-])Cc4c(C)ncn4CC)cc3)c2)cc1 [WX046],1.1 nM,2.8 nM
CCCCOCCOc1ccc(-c2ccc(OC(F)(F)F)c(/C=C/C(=O)Nc3ccc([S@@+]([O-])Cc4c(C)ncn4CC)cc3)c2)cc1 [WX054],43.4 nM,9.2 nM
CCCCOCCOc1ccc(-c2ccc(OC)c(/C=C/C(=O)Nc3ccc([S+]([O-])Cc4c(C)ncn4CCC)cc3)c2)cc1 (stereo not shown) [WX038],42.5 nM,12.5 nM
CCCCOCCOc1ccc(-c2ccc(C#N)c(/C=C/C(=O)Nc3ccc([S@@+]([O-])Cc4cncn4CCC)cc3)c2)cc1 [WX044],293 nM,16.1 nM
CCCCOc1ccc(-c2ccc(OCC(F)F)c(/C=C/C(=O)Nc3ccc([S@@+]([O-])Cc4cncn4CCC)cc3)c2)cc1 [WX026],175 nM,3.2 nM
CCCCOCCOc1ccc(-c2ccc(OC)c(/C=C/C(=O)Nc3ccc([S+]([O-])Cc4c(C)ncn4CC)cc3)c2)cc1 (stereo not shown) [WX045],77.6 nM,14.8 nM
CCCCOCCOc1ccc(-c2cccc(/C=C/C(=O)Nc3ccc([S@@+]([O-])Cc4cncn4CCC)cc3)c2)cc1 [WX001],29.9 nM,9.3 nM
CCCCOCCOc1ccc(-c2cccc(/C=C(\C)C(=O)Nc3ccc([S@@+]([O-])Cc4cncn4CCC)cc3)c2)cc1 [WX008],17.3 nM,1.5 nM

Structure (SMILES),IC50 (CCR2),IC50 (CCR5)
CCCCOCCOc1ccc(-c2ccc(C(F)(F)F)c(/C=C/C(=O)Nc3ccc([S@@+]([O-])Cc4c(C)ncn4CC)cc3)c2)cc1 [WX070],39.2 nM,8.4 nM
CCCCOCCOc1ccc(-c2ccc(O)c(/C=C/C(=O)Nc3ccc([S@@+]([O-])Cc4cncn4CCC)cc3)c2)cc1 [WX049],13.3 nM,9.2 nM
CCCCOCCOc1ccc(-c2ccc(OC(F)F)c(/C=C/C(=O)Nc3ccc([S@@+]([O-])Cc4cncn4CCC)cc3)c2)cc1 [WX051],5.5 nM,1.4 nM
CCCOCCOc1ccc(-c2ccc(OC(F)F)c(/C=C/C(=O)Nc3ccc([S@+]([O-])Cc4c(C)ncn4CC)cc3)c2)cc1 [WX074],5.4 nM,3.5 nM
CCCCOCCOc1ccc(-c2ccc(OC)c(/C=C/C(=O)Nc3ccc([S@+]([O-])Cc4cncn4CCC)cc3)c2)cc1 [WX085],5.2 nM,5.6 nM
CCCCOc1ccc(-c2ccc(OC)c(/C=C/C(=O)Nc3ccc([S@@+]([O-])Cc4cncn4CCC)cc3)c2)cc1 [WX048],11.8 nM,2.6 nM
CCCOCCOc1ccc(-c2ccc(OC(F)F)c(/C=C/C(=O)Nc3ccc([S@+]([O-])Cc4c(C)ncn4CCC)cc3)c2)cc1 [WX080],25.1 nM,15.1 nM
CCCn1cncc1C[S@+]([O-])c1ccc(NC(=O)/C=C/c2cccc(-c3ccc(OC)cc3)c2)cc1 [WX002],319 nM,113 nM
CCCCOc1ccc(-c2ccc(Cl)c(/C=C/C(=O)Nc3ccc([S+]([O-])Cc4cncn4CC4CC4)cc3)c2)cc1 (stereo not shown) [WX021],64.5 nM,8.8 nM
CCCCOCCOc1ccc(-c2ccc(OC(C)C)c(/C=C/C(=O)Nc3ccc([S@@+]([O-])Cc4cncn4CCC)cc3)c2)cc1 [WX033],56.3 nM,11.8 nM
CCCOc1ccc(-c2ccc(OC(F)F)c(/C=C/C(=O)Nc3ccc([S@+]([O-])Cc4c(C)ncn4CC)cc3)c2)cc1 [WX063],9.4 nM,1.4 nM
CCCCOCCOc1ccc(-c2ccc(OCC)c(/C=C/C(=O)Nc3ccc([S@@+]([O-])Cc4cncn4CCC)cc3)c2)cc1 [WX032],28.6 nM,8.1 nM
CCCCOCCOc1ccc(-c2ccc(OC(F)F)c(/C=C/C(=O)Nc3ccc([S@+]([O-])Cc4c(C)ncn4CCC)cc3)c2)cc1 [WX081],12.5 nM,5.5 nM
CCCCOCCOc1ccc(-c2ccc(OC)c(/C=C/C(=O)Nc3ccc([S+]([O-])Cc4cnccc4C)cc3)c2)cc1 (stereo not shown) [WX056],71.1 nM,16.6 nM
CCCCOCCOc1ccc(-c2ccc(C(C)C)c(/C=C/C(=O)Nc3ccc([S@@+]([O-])Cc4cncn4CCC)cc3)c2)cc1 [WX006],32.1 nM,3.3 nM
CCCn1cncc1C[S@+]([O-])c1ccc(NC(=O)/C=C/c2cccc(-c3ccc(OCC)cc3)c2)cc1 [WX004],153 nM,7.1 nM
CCCOCCOc1ccc(-c2ccc(OC(F)F)c(/C=C/C(=O)Nc3ccc([S@@+]([O-])Cc4cncn4CCC)cc3)c2)cc1 [WX064],12.8 nM,6.1 nM
CCCOCCOc1ccc(-c2ccc(OCC)c(/C=C/C(=O)Nc3ccc([S+]([O-])Cc4c(C)ncn4CCC)cc3)c2)cc1 (stereo not shown) [WX069],35.3 nM,1 nM
CCCCOCCOc1ccc(-c2cccc(/C=C/C(=O)Nc3ccc(S(=O)(=O)Cc4cncn4CCC)cc3)c2)cc1 [WX031],237 nM,95.9 nM
CCCCOCCOc1ccc(-c2cc(C)c(OC)c(/C=C/C(=O)Nc3ccc([S@@+]([O-])Cc4cncn4CCC)cc3)c2)cc1 [WX042],52.8 nM,4 nM

# Reference: patent US11155523B2, “Biphenyl compound as CCR2/CCR5 receptor antagonist” (Medshine Discovery Inc., priority 2016, dated 2021)
